Measurements published in patent publication US20190105367A1, “ANTIMICROBIAL 4-OXOQUINOLIZINES” (Emergent Product Development Gaithersburg Inc., priority 2011, published 2019).
≈ marks a conversion by molar mass, not a printed value. Like-named read-outs stand apart in the source and are kept apart here.

Key:
[1] = tested on: strains of A. baumannii and one strain of Acinetobacter sp.; assay: MIC with sub-inhibitory concentrations (0.25x MIC) of polymyxin B, panel of Acinetobacter strains (Example 4); format: cell-based
[2] = tested on: A. baumannii ATCC 19606; assay: MIC without and with sub-inhibitory polymyxin B (Example 4); format: cell-based, Acinetobacter baumannii; details: for MIC without PB/MIC + PB: A. baumannii ATCC 19606; for MIC: Acinetobacter baumannii
[3] = tested on: A. baumannii J2; assay: as above; format: cell-based, Acinetobacter baumannii; details: for MIC without PB/MIC + PB: A. baumannii J2; for MIC: Acinetobacter baumannii
[4] = tested on: A. baumannii J2; assay: Preliminary MBC without and with sub-inhibitory polymyxin B (Example 4); format: cell-based, Acinetobacter baumannii; details: Acinetobacter baumannii, preliminary MBC
[5] = tested on: Acinetobacter sp. (H064200250); assay: MIC without and with sub-inhibitory polymyxin B (Example 4); format: cell-based
[6] = tested on: A. baumannii A329; assay: as above; format: cell-based, Acinetobacter baumannii; details: A. baumannii A329; +0.06 μg/ml PB; 2nd experiment
[7] = tested on: A. baumannii A387; assay: as above; format: cell-based, Acinetobacter baumannii; details: for MIC without PB/MIC + PB: A. baumannii A387
[8] = tested on: A. baumannii A387; assay: Preliminary MBC without and with sub-inhibitory polymyxin B (Example 4); format: cell-based, Acinetobacter baumannii; details: Acinetobacter baumannii, A387, A. baumannii A387, +0.06 μg/ml PB, 2nd experiment, read-out: MBC
[9] = tested on: A. baumannii A390; assay: MIC without and with sub-inhibitory polymyxin B (Example 4); format: cell-based, Acinetobacter baumannii; details: +0.06 μg/ml PB, 2nd experiment
[10] = tested on: A. baumannii A14; assay: Preliminary MBC without and with sub-inhibitory polymyxin B (Example 4); format: cell-based, Acinetobacter baumannii; details: A. baumannii A14, +0.06 μg/ml PB, 2nd experiment
Procedure: (§1) The plates were incubated for 18-20 hours at 37° C. The MBC was read as the lowest concentration at which colony growth was ca. 90% less than the positive control (i.e. usually where single colonies or no colonies were observed).

[11] = tested on: A. baumannii A390; assay: as above; format: cell-based, Acinetobacter baumannii; details: Acinetobacter baumannii, A390, A. baumannii A390, +0.06 μg/ml PB, 2nd experiment, read-out: MBC
Procedure: as §1

[12] = tested on: A. baumannii A473; assay: as above; format: cell-based, Acinetobacter baumannii; details: Acinetobacter baumannii, A473, A. baumannii A473, +0.06 μg/ml PB, 2nd experiment, read-out: MBC
Procedure: as §1

[13] = tested on: A. baumannii NCTC 13301; assay: as above; format: cell-based, Acinetobacter baumannii; details: Acinetobacter baumannii
Procedure: as §1

[14] = tested on: A. baumannii A401; assay: MIC without and with sub-inhibitory polymyxin B (Example 4); format: cell-based, Acinetobacter baumannii; details: A baumannii A 401; ratio, PB 0.06 μg/ml; 1st experiment
[15] = tested on: A. baumannii A472; assay: as above; format: cell-based, Acinetobacter baumannii; details: for MIC: Acinetobacter baumannii
[16] = tested on: A. baumannii A472; assay: Preliminary MBC without and with sub-inhibitory polymyxin B (Example 4); format: cell-based, Acinetobacter baumannii; details: Acinetobacter baumannii, preliminary MBC
[17] = tested on: A. baumannii A473; assay: MIC without and with sub-inhibitory polymyxin B (Example 4); format: cell-based, Acinetobacter baumannii
[18] = tested on: A. baumannii A489; assay: as above; format: cell-based, Acinetobacter baumannii; details: for MIC without PB/MIC + PB: A. baumannii A489; for MIC: Acinetobacter baumannii
[19] = tested on: A. baumannii NCTC 13301; assay: as above; format: cell-based, Acinetobacter baumannii
[20] = tested on: A. baumannii NCTC 13301; assay: as above; format: cell-based, Acinetobacter baumannii; remark: listed apart in the source
[21] = tested on: A. baumannii A14; assay: as above; format: cell-based, Acinetobacter baumannii; details: 1st experiment
[22] = tested on: A. baumannii A14; assay: as above; format: cell-based, Acinetobacter baumannii; details: A. baumannii A14; +0.06 μg/ml PB; 2nd experiment
[23] = ratio, PB 0.06 μg/ml, 1st experiment

NCC[C@H](O)C(=O)N[C@@H]1C[C@H](N)[C@@H](O[C@H]2O[C@H](CN)[C@@H](O)[C@H](O)[C@H]2O)[C@H](O)[C@H]1O[C@H]1O[C@H](CO)[C@@H](O)[C@H](N)[C@H]1O [Amikacin, reference compound]
Change of activity (MIC) in presence of polymyxin B compared to without polymyxin B [1]: not significantly affected
Range ratios MIC without PB/MIC with PB Oct. 14, 2008 n = 11 ([1]; 2nd experiment): 1-16
MIC without PB/MIC + PB ([2]; +0.06 μg/ml PB, 2nd experiment): 2
MIC without PB/MIC + PB [2, 23]: 2
MIC ([2]; ATCC19606, A. baumannii ATCC 19606, +0.06 μg/ml PB, 2nd experiment, read-out: MIC): 8 µg/mL (≈ 13.7 µM)
MIC ([2]; ATCC19606, read-out: MIC +0.06 μg/ml PB, A. baumannii ATCC 19606, +0.06 μg/ml polymyxin B, 1st experiment): 8 µg/mL
MIC without PB/MIC + PB ([3]; +[…] PB, 2nd experiment): 16
MIC without PB/MIC + PB ([3]; ratio, PB […], 1st experiment): 8
MIC ([3]; J2, A. baumannii J2, +[…] PB, 2nd experiment, read-out: MIC): 0.5 µg/mL (≈ 0.854 µM)
MIC ([3]; J2, read-out: MIC +[…] PB, A. baumannii J2, +[…] polymyxin B, 1st experiment): 4 µg/mL (≈ 6.83 µM)
MBC ([4]; J2, A. baumannii J2, +[…] PB, 2nd experiment, read-out: MBC): 0.5 µg/mL (≈ 0.854 µM)
MBC ([4]; J2, read-out: MBC +[…] PB, A. baumannii J2, +[…] polymyxin B, 1st experiment): 4 µg/mL (≈ 6.83 µM)
MIC without PB/MIC + PB ([5]; Acinetobacter spp. H064200250 (OXA51), +[…] PB, 2nd experiment): 8
MIC without PB/MIC + PB ([5]; Acinetobacter spp. H064200250, ratio, PB […], 1st experiment): 1
MIC ([5]; Acinetobacter, Acinetobacter spp. H064200250 (OXA51), +[…] PB, 2nd experiment, read-out: MIC): 1 µg/mL (≈ 1.71 µM)
MIC without PB/MIC + PB [6]: 1
MIC without PB/MIC + PB ([7]; +0.06 μg/ml PB, 2nd experiment): ≥1
MIC without PB/MIC + PB [7, 23]: ≥1
MIC ([7]; Acinetobacter baumannii, A387): 128 µg/mL (≈ 219 µM)
MBC [8]: 128 µg/mL (≈ 219 µM)
MIC without PB/MIC + PB ([9]; A. baumannii A390): ≥2
MIC ([9]; Acinetobacter baumannii, A390, A. baumannii A390, read-out: MIC): 64 µg/mL (≈ 109 µM)
MBC [10]: 8 µg/mL (≈ 13.7 µM)
MBC [11]: 64 µg/mL (≈ 109 µM)
MBC [12]: 128 µg/mL (≈ 219 µM)
MBC ([13]; NCTC13301, A. baumannii NCTC 13301, +[…] PB, preliminary MBC, 2nd experiment, read-out: MBC): 64 µg/mL (≈ 109 µM)
MBC ([13]; NCTC13301, read-out: MBC +[…] PB): > 128 µg/mL
MIC without PB/MIC + PB [14]: ≥1
MIC without PB/MIC + PB ([15]; A. baumannii A472, ratio, PB […], 1st experiment): ≥8
MIC ([15]; A472, A. baumannii A472, +[…] PB, 2nd experiment, read-out: MIC): 32 µg/mL (≈ 54.6 µM)
MIC ([15]; A472, read-out: MIC +[…] PB, A. baumannii A472, +[…] polymyxin B, 1st experiment): 16 µg/mL (≈ 27.3 µM)
MBC ([16]; A472, A. baumannii A472, +[…] PB, 2nd experiment, read-out: MBC): 32 µg/mL (≈ 54.6 µM)
MBC ([16]; A472, read-out: MBC +[…] PB, A. baumannii A472, +[…] polymyxin B, 1st experiment): 32 µg/mL (≈ 54.6 µM)
MIC without PB/MIC + PB ([17]; A. baumannii A473, +0.06 μg/ml PB, 2nd experiment): ≥1
MIC ([17]; Acinetobacter baumannii, A473): 128 µg/mL (≈ 219 µM)
MIC without PB/MIC + PB ([18]; +[…] PB, 2nd experiment): ≥2
MIC without PB/MIC + PB ([18]; ratio, PB […], 1st experiment): ≥1
MIC ([18]; A489, A. baumannii A489, +[…] PB, 2nd experiment, read-out: MIC): 64 µg/mL (≈ 109 µM)
MIC ([18]; A489, read-out: MIC +[…] PB, A. baumannii A489, +[…] polymyxin B, 1st experiment): 128 µg/mL (≈ 219 µM)
MIC without PB/MIC + PB ([19]; A. baumannii NCTC 13301, ratio, PB […], 1st experiment): ≥1
MIC ([19]; Acinetobacter baumannii, NCTC13301, read-out: MIC +[…] PB): > 128 µg/mL
MIC without PB/MIC + PB ([20]; A. baumannii NCTC 13301, +[…] PB, 2nd experiment): ≥1
MIC ([20]; Acinetobacter baumannii, NCTC13301): 128 µg/mL (≈ 219 µM)
MIC +0.06 μg/ml PB ([21]; +0.06 μg/ml polymyxin B): 16 µg/mL
MIC without PB/MIC + PB ([21]; ratio, PB 0.06 μg/ml): 2
MIC [22]: 8 µg/mL (≈ 13.7 µM)
MIC without PB/MIC + PB [22]: 2
